In ChEMBL document CHEMBL1143282, “Synthesis and evaluation of photoreactive probes to elucidate iodide efflux in thyrocytes” (Bioorg Med Chem Lett, 2009):
pEC50: −log10 of the molar value. Calls of active or inactive are those of the source. The rule behind the calls is not given here.

Tests used:
FRTL-5 [1] = experiment: Iodide sequestering activity in rat FRTL5 cells assessed as enhancement of intracellular iodide entrapment at 0.1 to 200 uM after 120 mins in dark by scintillation counting; type: functional, cell-based
[2] = Chemical stability in MeCN/H2O at 4mCi/mL; type: physicochemical
FRTL-5 [3] = experiment: Iodide sequestering activity in rat FRTL5 cells assessed as enhancement of intracellular iodide entrapment after 120 mins in dark by scintillation counting; type: functional, cell-based; conditions: for pEC50: FRTL-5, 2 h
FRTL-5 [4] = experiment: Iodide sequestering activity in rat FRTL5 cells assessed as enhancement of intracellular iodide entrapment at 50 uM after 120 mins in dark by scintillation counting relative to sodium perchlorate; type: functional
FRTL-5 [5] = experiment: Iodide sequestering activity in rat FRTL5 cells assessed as enhancement of intracellular iodide entrapment at 200 uM after 120 mins in dark by scintillation counting relative to sodium perchlorate; type: functional
[6] = Chemical stability assessed as photodecomposition-associated half life in MeCN using UV lamp; type: physicochemical; conditions: MeCN solution irradiated with UV lamp
FRTL-5 [7] = experiment: Iodide sequestering activity in rat FRTL5 cells assessed as enhancement of intracellular iodide entrapment at 20 uM after 120 mins in dark by scintillation counting relative to sodium perchlorate; type: functional

| pEC50 (FRTL-5 [3]) | Structure (SMILES) | Activity (FRTL-5 [1]) | other results |
| --- | --- | --- | --- |
| 4.30 | O=C(c1ccccc1)c1ccc(C2=CSC3=NCCN23)cc1 | Active | Activity (FRTL-5 [3]): Dose-dependent effect; fold change (FC) (FRTL-5 [4]): 1.8; fold change (FC) (FRTL-5 [5]): 2.5; half-life [6]: 12 min |
| 4.70 | C1=C(c2ccc(-c3ccccc3)cc2)N2CCN=C2S1 | – | fold change (FC) (FRTL-5 [7]): 2.5 |

Further lines, the molecule ahead of its results:

| Structure (SMILES) | pEC50 (FRTL-5 [3]) | Activity (FRTL-5 [1]) | other results |
| --- | --- | --- | --- |
| [N-]=[N+]=Nc1ccc(-c2ccc(C3=CSC4=NCCN34)cc2)cc1 | – | inactive | – |
| N#[N+]c1ccc(-c2ccc(C3=CSC4=NCCN34)cc2)cc1 | – | inactive | – |
| FC(F)(F)C1(c2ccc(C3=CSC4=NCCN34)cc2)N=N1 | – | inactive | – |
| [3H]C1=C(c2ccc(C(=O)c3ccccc3)cc2)N2CCN=C2S1 | – | – | Stability [2]: 6 months |
